Where “and” joins values, the source holds several entries; their conditions need not be identical. Equal entries are not always repeated. Each block holds one compound with its values, some of them ahead of it.
Assays:
human CD38 [1] = biological target: T1, human CD38 (Homo sapiens, UniProt P28907); test: Radiochemical labeling of CD38 by [2'-3H] inhibitor (gel filtration, scintillation counting); assay type: binding; design: The soluble domain of human CD38 catalyzes the conversion of NAD^+ to cyclic-ADP-ribose; settings: 9 μM inhibitor, 1.2 μM CD38 monomer, pH 7.5, 25° C.
T1 sequence (P28907 43-300 limits assumed): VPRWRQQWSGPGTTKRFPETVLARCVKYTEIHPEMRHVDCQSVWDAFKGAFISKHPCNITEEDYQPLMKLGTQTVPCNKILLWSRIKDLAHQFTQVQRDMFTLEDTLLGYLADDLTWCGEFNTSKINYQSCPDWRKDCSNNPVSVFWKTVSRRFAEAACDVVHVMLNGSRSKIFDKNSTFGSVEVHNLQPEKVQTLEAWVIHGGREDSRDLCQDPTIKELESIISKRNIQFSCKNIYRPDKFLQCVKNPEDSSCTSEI
Description: Radiochemical measurement of inhibitor binding. […] Inhibitor at 9 μM with specific radioactivity of 866 cpm/nmol, was incubated with 1.2 μM CD38 (monomer) in 1 mL 50 mM potassium phosphate (pH 7.5). The reactions were started by enzyme addition and quenched by freezing with a dry ice/acetone bath at 30, 60 90, 120, 250, 500, and 1000 s. Cooled (0° C.) gel filtration columns were used to separate protein with cooled (0° C.) 10 mM potassium phosphate as eluant. The frozen fraction were quickly thawed, applied to these columns and fractions collected in 1 mL volumes over the course of several minutes. Scintillation fluid (9 mL) was then added to each 1 mL fraction and samples counted. […] The observed radioactivity was fit using the equation A(t)=A0(1−exp(−kt))+B. where A0 is activity at reaction completion, k is the observed pseudo-first order rate constant and B is the activity of the blank.
Titration of Enzyme with [2′-^3H]Inhibitor. CD38 inactivation was accomplished using a radiolabeled inhibitor to assess inhibitor interactions with the enzyme independent from inhibition of the catalytic activity. This method allows the determination of the stoichiometry of covalent labeling, and detects cooperativity at multiple sites. […] (FIG. 8) within reasonable agreement with the rate constant for inactivation in kinetic assays of inhibition (kon=0.0042 s^−1 at 19° C.). […]

CD38 = biological target: T2, CD38 (Homo sapiens, UniProt P28907); settings: 37° C.; cited from earlier work
T2 sequence (P28907 1-300): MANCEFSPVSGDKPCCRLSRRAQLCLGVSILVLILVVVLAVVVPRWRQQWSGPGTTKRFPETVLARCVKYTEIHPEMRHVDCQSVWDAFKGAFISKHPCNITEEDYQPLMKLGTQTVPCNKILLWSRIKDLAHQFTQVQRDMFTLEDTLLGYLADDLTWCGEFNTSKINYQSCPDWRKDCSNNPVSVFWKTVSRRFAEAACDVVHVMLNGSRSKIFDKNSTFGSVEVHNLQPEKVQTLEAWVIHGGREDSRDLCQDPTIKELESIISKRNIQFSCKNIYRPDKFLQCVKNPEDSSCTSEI

human CD38 [2] = biological target: T1, human CD38; test: Competitive and slow-onset inhibition of CD38-catalyzed conversion of NGD+ to cGDPR (295 nm absorbance); assay type: biochemical; design: The soluble domain of human CD38 catalyzes the conversion of NAD^+ to cyclic-ADP-ribose; settings: even at millimolar concentrations (data not shown)
Description: Determination of Ki and kon by competitive method. To 1 mL solutions of 50 mM potassium phosphate pH 7.2 and 100 μM NGD^+ containing, 50, 25, 12.5, and 6.25 and 0 μM inhibitor 1 was added 2 μL of 7 μM CD38. Reaction progress upon initiation by enzyme addition was monitored by measurement of 295 nm absorbance. The initial slopes were used to determine the Ki value, and all points of the experiment were fit to the equation A(t)=vt+(b−v)(1−exp(−kt))/k+A0 where k is the observed rate constant, b is the initial rate, v is the final rate and A0 is the initial absorbance was used to evaluate kon.
Determination of Competitive Inhibition by Initial Rates: The inhibitors 1–3 were evaluated for inhibition of CD38 enzymatic activity using a spectrophotometric assay. CD38 catalyzes the conversion of NGD^+ to cyclic-GDP ribose (cGDPR, Scheme 4) and product formation can be monitored by 295 nm absorbance measurement. […] A similar reaction containing 40 μM NGD^+ at several concentrations of 2 was also performed (FIG. 3).
Slow Phase Inhibition. […] This slow phase was not due to substrate depletion and was attributable to a kinetic process leading to progressive inhibition of the enzyme. The “slow-onset” absorbance curves could be fit using the equation At=vit+(vi−vf)(1−exp(−kt))/k+A0 where At is absorbance, vi is initial velocity, vf is final velocity, t is time in s, k is the rate of the slow onset process and A0 is absorbance of the sample at initial time. These fits are shown by the solid lines in FIG. 2 and FIG. 3. The rate constant for the slow phase could be obtained from the average value of k determined from the separate fits. The value of k for 1 was determined to be 0.0042±0.001 s^−1 and the value of k for 2 was determined to be 0.0083±0.002 s^−1. The parameter k is defined as kon in Scheme 5. [drawing 19]

[3] = Solution hydrolysis of the inhibitor; assay type: physicochemical; settings: 10 mM potassium phosphate, pH 6.5, 25° C.
Excerpt: Without being bound to any particular mechanism, it is believed that the electron-contributing moiety on A stabilizes the compounds of the invention such that they are less susceptible to hydrolysis from the rest of the compound. For example, the compound β-1′-5-methyl-nicotinamide-2′-deoxyribose (established as an effective inhibitor of CD38 in the Example) was compared with β-1′-nicotinamide-2′-deoxyribose in its ability to resist solution hydrolysis. […] This difference in chemical stability means that β-1′-nicotinamide-2′-deoxyribose is 50% depleted from solution in 2 hours, whereas β-1′-5-methyl-nicotinamide-2′-deoxyribose is not hydrolyzed by 50% until 12 hours. This improved chemical stability improves the value of the compound, since it is available for action for longer periods of time in biological systems due to resistance to hydrolytic breakdown.

human CD38 [4] = biological target: T1, human CD38; test: Off-rate / recovery of inhibited CD38 in excess NGD+; assay type: biochemical; design: The soluble domain of human CD38 catalyzes the conversion of NAD^+ to cyclic-ADP-ribose; settings: inhibited CD38 added to excess NGD+, 19° C.; for koff: read-out: koff, rate constant of recovery from inhibition
Description: Off-Rate Measurement. 500 nM CD38 in 50 mM potassium phosphate pH 7.2 was incubated with 15 μM inhibitor for 30 min at room temperature. 5 μL of the enzyme inhibitor solution was added to a cuvette containing 1 mL reaction of 50 mM potassium phosphate pH 7.5 containing 300 μM NGD^+ pre-chilled to 19° C. Production of […] was determined by monitoring 295 nm absorbance. The absorbance was fit to the equation A(t)=vt+(b−v)(1−exp(−kt))/k+A0 where A(t) is the absorbance, k is the rate constant of recovery, b is the initial rate, v is the final rate and A0 is the initial absorbance. A control lacking inhibitor but in all other respects identical was also run.
Recovery from Inhibition. […] The inhibitor off-rate provides the final parameter in the equation koff/kon*Ki=Ki(total) which is valid for the kinetic scheme of slow-onset inhibition shown in Scheme 5. This rate was obtained by a recovery protocol in which inhibited CD38 enzyme (by either 1 or 2) was added to a 200 μM solution of NGD^+. The solution 295 nm absorbance is monitored spectrophotometrically to assay conversion of NGD^+ to cGDPR as a consequence of regain of CD38 catlytic activity. […] The absorbance curves with the same equation used for slow-onset: At=vit+(vi−vf)(1−exp(−kt))/k+A0 where At is absorbance, vi is initial velocity, vf is final velocity, t is time in s, k is the rate of the recovery rate constant and A0 is the absorbance of the sample at initial time. The rate constant for the recovery phase was obtained from the average value of k determined from the separate fits. The value of koff for 1 was determined to be 1.5×10^−5 s^−1 and for 2 was determined to be 2.5×10^−5 S^−1.

human CD38 [5] = biological target: T1, human CD38; settings: CD38 preincubated with inhibitor 2; saturating nicotinamide
Description: 10 mL CD38 (1 μM) in K2PO4H was incubated with 2 (10 μM) for 30 minutes at room temperature and subsequently placed on ice. […] To a two syringe Applied Photophysics spectrophotometer in fluorescence mode was added inhibited enzyme to one syringe and NGD^+ solution to the other. Fluorescence was used to monitor cGDPR formation and the total fluorescence curves fit using the activity recovery equation F(t)=vt+(b−v) (1−exp(−kt))/k+F0 where k is the observed rate constant, b is the initial rate, v is the final rate and F0 is the initial absorbance.
A stopped flow, two syringe fitted spectrophotometer was used to perform the experiments. The fluorescence of cGDPR was measured as a function of time to generate curves that contain an exponential and a linear phase prior to substrate exhaustion. These curves were fit to the equation Ft=vft+(vi−vf)(1−exp (−kt))/k+F0 as previously defined.

human CD38 [6] = biological target: T1, human CD38; test: CD38-catalyzed base exchange of 2 to 1 with nicotinamide, HPLC; assay type: biochemical; design: The soluble domain of human CD38 catalyzes the conversion of NAD^+ to cyclic-ADP-ribose; settings: 75 μM 2, 1 μM CD38, nicotinamide, 19° C.
Description: Base-exchange reaction. […] These reactions were run separately in autosampler tubes held at 19° C. in a temperature regulated autosampler and assayed by multiinjection HPLC using 5 mM K2PO4H pH 5.0 and 2.5% MeOH as eluant. The quantity of 2 reacted and the quantity of 1 formed versus time was determined by integrations of the peaks for 1 and 2 with comparison to standards.

SMILES: [3H]C1[C@H]([n+]2cccc(C(N)=O)c2)O[C@H](CO)[C@H]1O (stereo partly shown) [[2′-^3H]-1, [2′-^3H]Nicotinamide deoxyriboside]
rate constant of radiochemical labeling of CD38 (kchem) (human CD38 [1]): 0.01 s⁻¹

SMILES: NC(=O)c1ccc[n+]([C@@H]2O[C@H](COP(=O)(O)O)[C@@H](O)[C@H]2O)c1 [NMN^+]
ratio of the rates of turnover of CD38 covalent intermediates, NMN+ versus ara-F-NMN+ (CD38): ~10^7

inhibition of CD38 conversion of NGD+ to cGDPR (human CD38 [2]): did not inhibit
SMILES: OC[C@H]1O[C@@H]([n+]2ccccc2)C[C@@H]1O [inhibitor 3, pyridyl-2′-deoxyriboside]

SMILES: Cc1cc(C(N)=O)c[n+](C2CC(O)C(CO)O2)c1 (single isomer, unassigned) [α isomer of 2]
inhibition of CD38 conversion of NGD+ to cGDPR (human CD38 [2]): did not inhibit

SMILES: NC(=O)c1ccc[n+]([C@H]2C[C@H](O)[C@@H](CO)O2)c1 [inhibitor 1, nicotinamide-2′-deoxyriboside]
time until 50% depleted from solution by hydrolysis [3]: 2 h | koff, rate constant of recovery from inhibition (human CD38 [4]): 1.5e-05 s⁻¹ | koff (human CD38 [4]): ~2e-05 s⁻¹

SMILES: NC(=O)c1ccc[n+](C2CC(O)C(CO)O2)c1 (single isomer, unassigned) [α isomer of 1]
inhibition of CD38 conversion of NGD+ to cGDPR (human CD38 [2]): did not inhibit

maximum rate of rescue (kbase) (human CD38 [5]): 0.023 s⁻¹ and 0.024 s⁻¹
SMILES: NC(=O)c1cccnc1 [nicotinamide]

SMILES: Cc1cc(C(N)=O)c[n+]([C@H]2C[C@H](O)[C@@H](CO)O2)c1 [inhibitor 2, 5-methyl-nicotinamide-2′-deoxyriboside]
time until 50% depleted from solution by hydrolysis [3]: 12 h | koff, rate constant of recovery from inhibition (human CD38 [4]): 2.5e-05 s⁻¹ | koff (human CD38 [4]): ~2e-05 s⁻¹ | kcat of base exchange (2 to 1) (human CD38 [6]): 0.007 s⁻¹

From patent US7022680B2, “Inhibitors of ADP-ribosyl transferases, cyclases, and hydrolases” (Albert Einstein College of Medicine of Yeshiva University, priority 2002, dated 2006)
